pEC50: −log10 of the molar value.
System: Hepatitis C virus
Assay: Antiviral activity against HCV by viral replicon assay
Type: functional, organism-based, Hepacivirus hominis

pEC50: 4.22
Compound: CC(C)(C)C(=O)SCCOP(=O)(OCCSC(=O)C(C)(C)C)OC[C@H]1O[C@@H](n2cc3cc[nH]c3nc2=O)[C@H](O)[C@@H]1O

From ChEMBL document CHEMBL1139784, “Design and evaluation of a potential mutagen for Hepatitis C virus” (Bioorg Med Chem Lett, 2007)
